Test results published in US20210032257A1, “(E)-1-(4-(DIMETHYLAMINO)BUT-2-ENOYL)PYRROLIDIN-3-YL 4-((3-ISOPROPYL-5-METHYLPYRAZOLO[1,5-A]PYRIMIDIN-7-YL)AMINO)PIPERIDINE-1-CARBOXYLATE FOR INHIBITING CDK7” (Eli Lilly and Company, priority 2017, published 2021).

How the values were obtained:
Assay in all cases: Biomarker study proliferation (CellTiter-Glo)
Format in all cases: cell-based
OVCAR5 = system: OVCAR5
How it was run: (§1)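 Overnight-plated cells (5000/well, 37 °C, 5% CO2) receive compound diluted through an OPTIMEM + 10% FBS intermediate plate. After one week, CellTiter-Glo is added and luminescence is read.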

DMS79 = system: DMS79
How it was run: as §1

MDST8 = system: MDST8
How it was run: as §1

DU145 = system: DU145
How it was run: as §1

NCIH82 = system: NCIH82
How it was run: as §1

UMUC3 = system: UMUC3
How it was run: as §1

SNU16 = system: SNU16
How it was run: as §1

MX1 = system: MX1
How it was run: as §1

RT112 = system: RT112
How it was run: as §1

CORL311 = system: CORL311
How it was run: as §1

TGW = system: TGW
How it was run: as §1

HCC827 = system: HCC827
How it was run: as §1

NCIH209 = system: NCIH209
How it was run: as §1

HEP3B217 = system: HEP3B217
How it was run: as §1

HCC44 = system: HCC44
How it was run: as §1

TOV21G = system: TOV21G
How it was run: as §1

HOS = system: HOS
How it was run: as §1

MHCC97L = system: MHCC97L
How it was run: as §1

TYKNU = system: TYKNU
How it was run: as §1

[1] = 168 h, read-out: Anti-proliferation effect IC50
[2] = Homo sapiens, 168 h, read-out: Anti-proliferation effect IC50

## Cc1cc(NC2CCN(C(=O)O[C@H]3CCN(C(=O)/C=C/CN(C)C)C3)CC2)n2ncc(C(C)C)c2n1 [Example 1, [(3S)-1-[(E)-4-(dimethylamino)but-2-enoyl]pyrrolidin-3-yl] 4-[(3-isopropyl-5-methyl-pyrazolo[1,5-a]pyrimidin-7-yl)amino]piperidine-1-carboxylate]
OVCAR5; Homo sapiens, OVCAR-5, 168 h, read-out: Anti-proliferation effect IC50
  IC50: 86 nM
OVCAR5; OVCAR5, OVARY, 7 days
  Anti-proliferation effect % Inh.: 74%
  Anti-proliferation effect Outcome: Cytotoxic (cytotoxic (IC50<1 μM and % inhibition ≥70%))
DMS79; DMS79, LUNG, 7 days
  Anti-proliferation effect % Inh.: 50%
  Anti-proliferation effect Outcome: Cytostatic (cytostatic (IC50<1 μM and % inhibition <70%))
DMS79; Homo sapiens, DMS-79, 168 h, read-out: Anti-proliferation effect IC50
  IC50: 354 nM
MDST8; MDST8, 168 h, read-out: Anti-proliferation effect IC50
  IC50: 49 nM
MDST8; MDST8, INTESTINE, 7 days
  Anti-proliferation effect % Inh.: 88%
  Anti-proliferation effect Outcome: Cytotoxic (cytotoxic (IC50<1 μM and % inhibition ≥70%))
DU145; DU145, PROSTATE, 7 days
  Anti-proliferation effect % Inh.: 74%
  Anti-proliferation effect Outcome: Cytotoxic (cytotoxic (IC50<1 μM and % inhibition ≥70%))
DU145; Homo sapiens, DU-145, 168 h, read-out: Anti-proliferation effect IC50
  IC50: 36 nM
NCIH82; Homo sapiens, NCI-H82, 168 h, read-out: Anti-proliferation effect IC50
  IC50: 699 nM
NCIH82; NCIH82, LUNG, 7 days
  Anti-proliferation effect % Inh.: 22%
  Anti-proliferation effect Outcome: Cytostatic (cytostatic (IC50<1 μM and % inhibition <70%))
UMUC3; Homo sapiens, UMUC3, 168 h, read-out: Anti-proliferation effect IC50
  IC50: 161 nM
UMUC3; UMUC3, URINARY, 7 days
  Anti-proliferation effect % Inh.: 70%
  Anti-proliferation effect Outcome: Cytotoxic (cytotoxic (IC50<1 μM and % inhibition ≥70%))
SNU16; Homo sapiens, SNU-16, 168 h, read-out: Anti-proliferation effect IC50
  IC50: 17 nM
SNU16; SNU16, STOMACH, 7 days
  Anti-proliferation effect % Inh.: 84%
  Anti-proliferation effect Outcome: Cytotoxic (cytotoxic (IC50<1 μM and % inhibition ≥70%))
MX1; Homo sapiens, MX1, 168 h, read-out: Anti-proliferation effect IC50
  IC50: 45 nM
MX1; MX1, BREAST, 7 days
  Anti-proliferation effect % Inh.: 72%
  Anti-proliferation effect Outcome: Cytotoxic (cytotoxic (IC50<1 μM and % inhibition ≥70%))
RT112; Homo sapiens, RT-112, 168 h, read-out: Anti-proliferation effect IC50
  IC50: 32 nM
RT112; RT112, URINARY, 7 days
  Anti-proliferation effect % Inh.: 87%
  Anti-proliferation effect Outcome: Cytotoxic (cytotoxic (IC50<1 μM and % inhibition ≥70%))
CORL311; [1]
  IC50: 95 nM
CORL311; CORL311, LUNG, 7 days
  Anti-proliferation effect % Inh.: 75%
  Anti-proliferation effect Outcome: Cytotoxic (cytotoxic (IC50<1 μM and % inhibition ≥70%))
TGW; [1]
  IC50: 70 nM
TGW; TGW, BRAIN, 7 days
  Anti-proliferation effect % Inh.: 63%
  Anti-proliferation effect Outcome: Cytostatic (cytostatic (IC50<1 μM and % inhibition <70%))
HCC827; HCC827, LUNG, 7 days
  Anti-proliferation effect % Inh.: 69%
  Anti-proliferation effect Outcome: Cytostatic (cytostatic (IC50<1 μM and % inhibition <70%))
HCC827; Homo sapiens, HCC827, 168 h, read-out: Anti-proliferation effect IC50
  IC50: 55 nM
NCIH209; Homo sapiens, NCI-H209, 168 h, read-out: Anti-proliferation effect IC50
  IC50: 40 nM
NCIH209; NCIH209, LUNG, 7 days
  Anti-proliferation effect % Inh.: 83%
  Anti-proliferation effect Outcome: Cytotoxic (cytotoxic (IC50<1 μM and % inhibition ≥70%))
HEP3B217; [1]
  IC50: 33 nM
HEP3B217; HEP3B217, LIVER, 7 days
  Anti-proliferation effect % Inh.: 66%
  Anti-proliferation effect Outcome: Cytostatic (cytostatic (IC50<1 μM and % inhibition <70%))
HCC44; HCC44, LUNG, 7 days
  Anti-proliferation effect % Inh.: 48%
  Anti-proliferation effect Outcome: Cytostatic (cytostatic (IC50<1 μM and % inhibition <70%))
HCC44; Homo sapiens, HCC44, 168 h, read-out: Anti-proliferation effect IC50
  IC50: 131 nM
TOV21G; [2]
  IC50: 61 nM
TOV21G; OVARY, 7 days
  Anti-proliferation effect % Inh.: 73%
  Anti-proliferation effect Outcome: Cytotoxic (cytotoxic (IC50<1 μM and % inhibition ≥70%))
HOS; BONE, 7 days
  Anti-proliferation effect % Inh.: 72%
  Anti-proliferation effect Outcome: Cytotoxic (cytotoxic (IC50<1 μM and % inhibition ≥70%))
HOS; [2]
  IC50: 90 nM
MHCC97L; [1]
  IC50: 526 nM
MHCC97L; LIVER, 7 days
  Anti-proliferation effect % Inh.: 45%
  Anti-proliferation effect Outcome: Cytostatic (cytostatic (IC50<1 μM and % inhibition <70%))
TYKNU; [1]
  IC50: 72 nM
TYKNU; TYKNU, OVARY, 7 days
  Anti-proliferation effect % Inh.: 83%
  Anti-proliferation effect Outcome: Cytotoxic (cytotoxic (IC50<1 μM and % inhibition ≥70%))
